From BindingDB's records for doi:10.1016/0960-894X(96)00232-6 (1996)

How the values were obtained:
[1] = Inhibition of ET- 1 stimulated arachidonic acid release (AAR) in cultured rabbit renal vascular smooth muscle cells expressing the endothelin B receptor.
[2] = Inhibition of ET- 1 stimulated arachidonic acid release (AAR) in cultured rabbit renal vascular smooth muscle cells expressing the endothelin A receptor.
[3] = Compound was evaluated for the receptor binding activity in rabbit artery vascular smooth muscle cells expressing Endothelin A receptor

Row | IC50 [1] [nM] | IC50 [2] [nM] | IC50 [3] [µM] | Compound
1 | 740 | 3400 | – | COc1cc2c(Sc3ccc4c(c3)OCO4)c(C(=O)O)n(Cc3ccc4c(c3)OCO4)c2cc1OCc1ccccc1 [1-Benzo[1,3]dioxol-5-ylmethyl-3-(benzo[1,3]dioxol-5-ylsulfanyl)-6-benzyloxy-5-methoxy-1H-indole-2-carboxylic acid]
2 | – | – | 5.9 | COc1cccc(Sc2c(C(=O)O)sc3ccccc23)c1 [3-(3-Methoxy-phenylsulfanyl)-benzo[b]thiophene-2-carboxylic acid]
3 | – | – | 23 | COc1cccc(Sc2c(C(=O)O)oc3ccccc23)c1 [3-(3-Methoxy-phenylsulfanyl)-benzofuran-2-carboxylic acid]
4 | – | 65 | – | COc1ccc(Sc2c(C(=O)O)n(Cc3ccc4c(c3)OCO4)c3cc4c(cc23)OCO4)cc1OC [5-Benzo[1,3]dioxol-5-ylmethyl-7-(3,4-dimethoxy-phenylsulfanyl)-5H-[1,3]dioxolo[4,5-f]indole-6-carboxylic acid]
